As usually defined, the IC50 is the concentration at which inhibition is half-maximal. As usually defined, the viability, T/C is the ratio of treated to control.

Each structure is given as a SMILES string. “And” between values parts separate entries of the source, which are not always exact repeats. Equal values may be shown once.

The values below come from PubChem BioAssay AID2060884 (Molecular Pharmacology Branch, DTP, NCI, 2025).

The assay concerns NCI-H929 complex spheroids, viability % test/control. The assay can be described thus: Anticancer human tumor NCI-H929 cell line growth inhibition [RAS].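 On all read-outs here: compound exposure lasted seven days before viability was read.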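 On viability, T/C: 100% = DMSO vehicle control viability.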 As to conditions: for viability, T/C: stronger effect = lower value. Summed up: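 Tumour cells grown as complex spheroids with HUVEC endothelial cells and mesenchymal stem cells, treated with RAS pathway inhibitor combinations. Each agent spans half-log steps from near clinical Cmax, or 10 microM where Cmax is unknown.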

In the case of `O=C(c1ccc(F)c(F)c1Nc1ccc(I)cc1F)N1CC(O)([C@@H]2CCCCN2)C1` + CCn1c(-c2cccnc2C(C)OC)c2c3cc(ccc31)N1CCOC(CC(NC(=O)C(C(C)C)N(C)C(=O)C3(F)CCN(C(=O)C#CC(C)(C)N(C)C)CC3)C(=O)N3CCCC(N3)C(=O)OCC(C)(C)C2)C1, the IC50 by setting is: (curve of first compound, second compound 0.000949 µM) 663 nM; (curve of first compound, second compound 0.003 µM) 688 nM; (curve of first compound, second compound 0.00949 µM) 686 nM; (curve of first compound, second compound 0.03 µM) 661 nM; (curve of first compound, second compound 0.0949 µM) 636 nM; (curve of first compound, second compound 0.3 µM) 597 nM. In addition, the viability, T/C was 109% (second compound 0.000949 µM, first compound 0.00316 µM); 97.9% (second compound 0.000949 µM, first compound 0.01 µM); 103% (second compound 0.000949 µM, first compound 0.0316 µM); 92.5% (second compound 0.000949 µM, first compound 0.1 µM); 98.3% (second compound 0.000949 µM, first compound 0.316 µM); 23.2% (second compound 0.000949 µM, first compound 1 µM). Moreover, the viability, T/C reads like this: (second compound 0.003 µM, first compound 0.00316 µM) 99.2%; (second compound 0.003 µM, first compound 0.01 µM) 102%; (second compound 0.003 µM, first compound 0.0316 µM) 101%; (second compound 0.003 µM, first compound 0.1 µM) 93.7%; (second compound 0.003 µM, first compound 0.316 µM) 98.4%; (second compound 0.003 µM, first compound 1 µM) 26.8%. In addition, the viability, T/C (second compound 0.00949 µM, first compound 0.00316 µM) was 97.2%; the viability, T/C (second compound 0.00949 µM, first compound 0.01 µM) is 102%; the viability, T/C (second compound 0.00949 µM, first compound 0.0316 µM) was 104%; the viability, T/C (second compound 0.00949 µM, first compound 0.1 µM) is 95.1%; the viability, T/C (second compound 0.00949 µM, first compound 0.316 µM) was 101%; the viability, T/C (second compound 0.00949 µM, first compound 1 µM) was 25.5%. Also, the viability, T/C is 98.6% (second compound 0.03 µM, first compound 0.00316 µM); 100% (second compound 0.03 µM, first compound 0.01 µM); 102% (second compound 0.03 µM, first compound 0.0316 µM); 96.9% (second compound 0.03 µM, first compound 0.1 µM); 101% (second compound 0.03 µM, first compound 0.316 µM); 21.8% (second compound 0.03 µM, first compound 1 µM). For the same compound, the viability, T/C was 96.6% (second compound 0.0949 µM, first compound 0.00316 µM); 99.7% (second compound 0.0949 µM, first compound 0.01 µM); 101% (second compound 0.0949 µM, first compound 0.0316 µM); 98.4% (second compound 0.0949 µM, first compound 0.1 µM); 103% (second compound 0.0949 µM, first compound 0.316 µM); 17.7% (second compound 0.0949 µM, first compound 1 µM). Further, the viability, T/C was 100% (second compound 0.3 µM, first compound 0.00316 µM); 101% (second compound 0.3 µM, first compound 0.01 µM); 101% (second compound 0.3 µM, first compound 0.0316 µM); 100% (second compound 0.3 µM, first compound 0.1 µM); 105% (second compound 0.3 µM, first compound 0.316 µM); 8.18% (second compound 0.3 µM, first compound 1 µM).
As to `Nc1ccn(C2OC(CO)C(O)C2(F)F)c(=O)n1` (stereo not given), the viability, T/C is, setting by setting: (compound 0.00316 µM) 106% [middle of 4 runs]; (compound 0.0316 µM) 0.89% (2×) and 1.85% and 1.95%; (compound 0.1 µM) 1.62% [middle of 4 runs]; (compound 0.316 µM) 1.71% [middle of 4 runs]; (compound 1 µM) 1.37% [middle of 4 runs]. Besides, the IC50 (curve of compound) is 18.3 nM [middle of 4 runs].
For the compound `CCc1c2c(nc3ccc(O)cc13)-c1cc3c(c(=O)n1C2)COC(=O)[C@]3(O)CC`, the viability, T/C is 110% and 80.3% and 104% (2×) (compound 0.000949 µM); 15.8% [middle of 4 runs] (compound 0.003 µM); 1.38% [middle of 4 runs] (compound 0.00949 µM); 1.43% [middle of 4 runs] (compound 0.03 µM); 1.87% [middle of 4 runs] (compound 0.0949 µM); 1.15% [middle of 4 runs] (compound 0.3 µM). Moreover, the half-inhibitory concentration (IC50) (curve of compound) was 1.97 nM [middle of 4 runs].
